These results are taken from PubChem BioAssay AID256 (DTP/NCI, 2004).

In this assay the test system is CD2F1 mice, L1210 leukemia ip, survival T/C. The assay can be described thus: NCI In Vivo Anticancer Drug Screen. Data for tumor model L1210 Leukemia (intraperitoneal) in CD2F1 (CDF1) mice. The settings on record: higher = longer survival. The essentials:
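Implant tumor; dose compound or vehicle; measure endpoint in both groups; report treated divided by control.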

Setting [1] is: endpoint: mean survival time, dose: 100.0 mg/kg/injection, schedule: Q01DX009 (ip), vehicle: saline with Tween-80.
Where [2] appears, read: endpoint: mean survival time, dose: 200.0 mg/kg/injection, schedule: Q01DX009 (ip), vehicle: saline with Tween-80.
The mark [3] stands for this setting: endpoint: mean survival time, dose: 400.0 mg/kg/injection, schedule: Q01DX009 (ip), vehicle: saline with Tween-80.
Where [4] appears, read: endpoint: mean survival time, dose: 100.0 mg/kg/injection, schedule: Q01DX001 (ip), vehicle: saline.
Where [5] appears, read: endpoint: mean survival time, dose: 100.0 mg/kg/injection, schedule: Q04DX003 (ip), vehicle: saline with Tween-80.
The mark [6] stands for this setting: endpoint: mean survival time, dose: 200.0 mg/kg/injection, schedule: Q04DX003 (ip), vehicle: saline with Tween-80.
Setting [7] is: endpoint: mean survival time, dose: 400.0 mg/kg/injection, schedule: Q04DX003 (ip), vehicle: saline with Tween-80.
The mark [8] stands for this setting: endpoint: mean survival time, dose: 100.0 mg/kg/injection, schedule: Q01DX001 (ip), vehicle: saline with Tween-80.
The mark [9] stands for this setting: endpoint: mean survival time, dose: 200.0 mg/kg/injection, schedule: Q01DX001 (ip), vehicle: saline with Tween-80.

The structures appear in SMILES notation. Toxic doses and inconclusive results are not listed.

For the compound `Nc1nc(SSc2nc(N)nc3c2ncn3C2CC(O)C(CO)O2)c2ncn(C3CC(O)C(CO)O3)c2n1` (centres undefined), the T/C runs as follows: (endpoint: mean survival time, dose: 2.3 mg/kg/injection, schedule: Q01DX009 (ip), vehicle: saline) 152 % of control; (endpoint: mean survival time, dose: 4.7 mg/kg/injection, schedule: Q01DX009 (ip), vehicle: saline) 162 % of control; (endpoint: mean survival time, dose: 18.8 mg/kg/injection, schedule: Q01DX009 (ip), vehicle: saline) 119 % of control.

In the case of `Nc1nc(N)c2c(Cl)c(CNc3ccc(C(=O)NC(CC(=O)O)C(=O)O)cc3)ccc2n1` (centres undefined), the T/C runs as follows: (endpoint: mean survival time, dose: 2.0 mg/kg/injection, schedule: Q01DX001 (ip), vehicle: saline) 121 % of control; (endpoint: mean survival time, dose: 2.0 mg/kg/injection, schedule: Q01DX009 (oral), vehicle: saline) 94 % of control; (endpoint: mean survival time, dose: 2.0 mg/kg/injection, schedule: Q03HX024 (ip), vehicle: saline) 101 % of control; (endpoint: mean survival time, dose: 2.0 mg/kg/injection, schedule: Q08DX002 (ip), vehicle: saline) 104 % of control; (endpoint: mean survival time, dose: 4.0 mg/kg/injection, schedule: Q01DX001 (oral), vehicle: saline) 103 % of control; (endpoint: mean survival time, dose: 4.0 mg/kg/injection, schedule: Q01DX009 (ip), vehicle: saline) 120 % of control. The T/C by setting is: (endpoint: mean survival time, dose: 4.0 mg/kg/injection, schedule: Q01DX009 (sc), vehicle: saline) 98 % of control; (endpoint: mean survival time, dose: 8.0 mg/kg/injection, schedule: Q01DX009 (oral), vehicle: saline) 118 % of control; (endpoint: mean survival time, dose: 8.0 mg/kg/injection, schedule: Q03HX024 (ip), vehicle: saline) 95 % of control; (endpoint: mean survival time, dose: 16.0 mg/kg/injection, schedule: Q01DX001 (oral), vehicle: saline) 120 % of control; (endpoint: mean survival time, dose: 16.0 mg/kg/injection, schedule: Q01DX009 (ip), vehicle: saline) 88 % of control; (endpoint: mean survival time, dose: 16.0 mg/kg/injection, schedule: Q01DX009 (sc), vehicle: saline) 87 % of control. Further, the T/C (endpoint: mean survival time, dose: 16.0 mg/kg/injection, schedule: Q03HX016 (ip), vehicle: saline) was 98 % of control; the T/C (endpoint: mean survival time, dose: 32.0 mg/kg/injection, schedule: Q01DX009 (oral), vehicle: saline) is 93 % of control; the T/C (endpoint: mean survival time, dose: 512.0 mg/kg/injection, schedule: Q01DX001 (sc), vehicle: saline) was 96 % of control.

Consider `CC[C@H](CC[C@@H](C)[C@H]1CC[C@H]2[C@@H]3CC=C4C[C@@H](O)CC[C@]4(C)[C@H]3CC[C@]12C)C(C)C`, for which the T/C under setting [1] is 89 % of control, the T/C under setting [2] is 101 % of control and the T/C under setting [3] is 95 % of control.

Take `NC(CC(=O)CCl)C(=O)O` (centres undefined): the T/C runs as follows: (endpoint: mean survival time, dose: 6.25 mg/kg/injection, schedule: Q04DX003 (ip), vehicle: saline) 120 % of control; (endpoint: mean survival time, dose: 37.5 mg/kg/injection, schedule: Q04DX003 (ip), vehicle: saline) 109 % of control; (endpoint: median survival time, dose: 10.0 mg/kg/injection, schedule: Q01DX001 (ip), vehicle: saline) 121 % of control; (endpoint: median survival time, dose: 20.0 mg/kg/injection, schedule: Q01DX001 (ip), vehicle: saline) 121 % of control; (endpoint: median survival time, dose: 30.0 mg/kg/injection, schedule: Q01DX009 (ip), vehicle: saline) 122 % of control; (endpoint: median survival time, dose: 40.0 mg/kg/injection, schedule: Q01DX001 (ip), vehicle: saline) 122 % of control. In addition, where the note is “endpoint: median survival time, dose: 60.0 mg/kg/injection, schedule: Q01DX009 (ip), vehicle: saline”, the T/C was 35 % of control.

Take `CN(CC1CCCC1)C1CCCCC1`: the T/C under setting [4] is 98 % of control.

Turning to `O=C(CC(NC(=O)OCc1ccccc1)C(=O)O)OCc1ccccc1` (centres undefined), the T/C under setting [5] is 103 % of control, the T/C under setting [6] was 95 % of control and the T/C under setting [7] is 102 % of control.

Take `O=C(CSC1=NCCN1)c1ccc([N+](=O)[O-])cc1`: the T/C reads like this: (endpoint: mean survival time, dose: 25.0 mg/kg/injection, schedule: Q04DX003 (ip), vehicle: saline with Tween-80) 94 % of control; (endpoint: mean survival time, dose: 50.0 mg/kg/injection, schedule: Q04DX003 (ip), vehicle: saline with Tween-80) 93 % of control; under setting [5], 93 % of control.

In the case of `CCc1cc(/C=C2\C(=O)C=Cc3ccccc32)c(O)s1`, the T/C (endpoint: mean survival time, dose: 25.0 mg/kg/injection, schedule: Q04DX002 (ip), vehicle: saline with Tween-80) was 101 % of control; the T/C (endpoint: mean survival time, dose: 50.0 mg/kg/injection, schedule: Q04DX002 (ip), vehicle: saline with Tween-80) is 96 % of control; the T/C (endpoint: mean survival time, dose: 100.0 mg/kg/injection, schedule: Q04DX002 (ip), vehicle: saline with Tween-80) is 96 % of control.

As to `c1ccc(-c2c[s+]cc(-c3ccccc3)c2)cc1`, the T/C is 109 % of control (endpoint: mean survival time, dose: 50.0 mg/kg/injection, schedule: Q01DX001 (ip), vehicle: saline with Tween-80); 104 % of control under setting [8]; 110 % of control under setting [9].

As to `CCc1ccccc1OCC1CO1` (centres undefined), the T/C is, setting by setting: under setting [4], 102 % of control; (endpoint: mean survival time, dose: 200.0 mg/kg/injection, schedule: Q01DX001 (ip), vehicle: saline) 100 % of control; (endpoint: mean survival time, dose: 400.0 mg/kg/injection, schedule: Q01DX001 (ip), vehicle: saline) 102 % of control.

For `C#CCOCCCC(=C)C`, the T/C (endpoint: mean survival time, dose: 100.0 mg/kg/injection, schedule: Q01DX001 (ip), vehicle: acetone) is 98 % of control.

Turning to `SC1(SC2(S)CCCCC2)CCCCC1`, the T/C by setting is: under setting [1], 102 % of control; under setting [2], 112 % of control; under setting [3], 103 % of control.

On to `CC1(C)C2CC=C(CCN=[N+]=[N-])C1C2` (centres undefined), for which the T/C (endpoint: mean survival time, dose: 50.0 mg/kg/injection, schedule: Q01DX009 (ip), vehicle: saline sonified) is 97 % of control; the T/C (endpoint: mean survival time, dose: 100.0 mg/kg/injection, schedule: Q01DX009 (ip), vehicle: saline sonified) is 97 % of control; the T/C under setting [5] was 105 % of control; the T/C (endpoint: mean survival time, dose: 200.0 mg/kg/injection, schedule: Q01DX009 (ip), vehicle: saline sonified) was 95 % of control; the T/C under setting [6] was 97 % of control.

As for `C(=C(c1ccccc1)c1ccccc1)=C(c1ccccc1)c1ccccc1`, the T/C runs as follows: under setting [1], 93 % of control; under setting [5], 100 % of control; under setting [2], 90 % of control; under setting [6], 97 % of control; under setting [3], 90 % of control; under setting [7], 95 % of control.

Consider `CC(=O)Oc1cc2c(cc1C(C)C)CCC1C(C)(C#N)CCCC21C` (centres undefined), for which the T/C is, setting by setting: under setting [1], 90 % of control; under setting [5], 89 % of control; under setting [2], 95 % of control; under setting [6], 87 % of control; under setting [3], 92 % of control; under setting [7], 98 % of control.

`Nc1ccc(-c2nc(N)[nH]c(=O)c2N)cc1`: the T/C runs as follows: under setting [8], 96 % of control; under setting [9], 92 % of control; (endpoint: mean survival time, dose: 400.0 mg/kg/injection, schedule: Q01DX001 (ip), vehicle: saline with Tween-80) 88 % of control.

As for `Cc1cc(Cl)ccc1NC(=O)N1CCCC(C)C1` (centres undefined), the T/C (endpoint: mean survival time, dose: 12.5 mg/kg/injection, schedule: Q01DX009 (ip), vehicle: saline with Tween-80) was 95 % of control; the T/C (endpoint: mean survival time, dose: 25.0 mg/kg/injection, schedule: Q01DX009 (ip), vehicle: saline with Tween-80) was 102 % of control; the T/C (endpoint: mean survival time, dose: 50.0 mg/kg/injection, schedule: Q01DX009 (ip), vehicle: saline with Tween-80) is 91 % of control.

For the compound `Cc1cc(Cl)ccc1OCC(=O)Nc1nc(N)nc(N)n1`, the T/C by setting is: under setting [1], 105 % of control; under setting [5], 89 % of control; under setting [2], 102 % of control; under setting [6], 90 % of control; under setting [3], 100 % of control; under setting [7], 101 % of control.

With `CC(C)CC(Br)C(=O)NCC(=O)NC(Cc1ccccc1)C(=O)O` (centres undefined), the T/C runs as follows: under setting [5], 106 % of control; under setting [6], 97 % of control; under setting [7], 96 % of control.

For `O/N=C\c1ccc2c(c1)OCCO2`, the T/C is 97 % of control (endpoint: mean survival time, dose: 37.5 mg/kg/injection, schedule: Q01DX009 (ip), vehicle: saline); 103 % of control (endpoint: mean survival time, dose: 75.0 mg/kg/injection, schedule: Q01DX009 (ip), vehicle: saline); 112 % of control (endpoint: mean survival time, dose: 75.0 mg/kg/injection, schedule: Q04DX003 (ip), vehicle: saline); 100 % of control (endpoint: mean survival time, dose: 150.0 mg/kg/injection, schedule: Q01DX009 (ip), vehicle: saline); 100 % of control (endpoint: mean survival time, dose: 150.0 mg/kg/injection, schedule: Q04DX003 (ip), vehicle: saline); 100 % of control (endpoint: mean survival time, dose: 300.0 mg/kg/injection, schedule: Q04DX003 (ip), vehicle: saline).

As for `COC(=O)C1(C)CCCC2(C)C1CCC1(O)C(O)C(C(C)C)=CCC21` (centres undefined), the T/C is, setting by setting: under setting [5], 92 % of control; under setting [6], 93 % of control; under setting [7], 92 % of control.
